Assay [1] deals with weed plants such as Digitaria sanguinalis, Echinochloa crus-galli, Setaria faberi, Setaria viridis, Sorghum halepense, Abutilon theophrasti, Amaranthum …. In words: Pre-emergence effect on weeds (greenhouse pot test). The format is in vivo, monocotyledonous and dicotyledonous weed plants. The following applies: application rate of 1 kg or less of active substance per hectare; scored visually after 3 to 4 weeks by comparison with untreated controls. The source says: Seeds or rhizome pieces of monocotyledonous and dicotyledonous weed plants are placed in sandy loam soil in plastic pots and covered with soil. The compounds according to the invention which are formulated in the form of wettable powders or emulsion concentrates are then applied to the surface of the soil cover in the form of aqueous suspensions or emulsions at an application rate of 600 to 800 l of water/ha (converted), in various dosages.
After the treatment, the pots are placed in a greenhouse and kept under good growth conditions for the weeds. After the test plants have emerged, the damage to the plants or the negative effect on the emergence is scored visually after a test period of 3 to 4 weeks by comparison with untreated controls. As shown by the test results, compounds according to the invention have good herbicidal pre-emergence activity against a broad spectrum of weed grasses and broad-leafed weeds.

Assay [2] has as its system harmful plants such as Digitaria sanguinalis, Echinochloa crus-galli, Setaria faberi, Setaria viridis, Sorghum halepense, Abutilon theophrasti, Amaranthum …. Put plainly: Post-emergence effect on weeds (greenhouse pot test). The format is in vivo, monocotyledonous and dicotyledonous weeds. The following applies: application rate of 1 kg and less of active substance per hectare; treated at three-leaf stage; scored visually after about 3 to 4 weeks by comparison with untreated controls. Here is the method: Seeds or rhizome pieces of monocotyledonous and dicotyledonous weeds are placed in sandy loam soil in plastic pots, covered with soil and grown in a greenhouse under good growth conditions. Three weeks after sowing, the test plants are treated at the three-leaf stage. The compounds according to the invention which were formulated as wettable powders or emulsion concentrates are sprayed, at various dosages, onto the green parts of the plants at an application rate of 600 to 800 l of water/ha (converted). After the test plants have remained in the greenhouse for about 3 to 4 weeks under optimum growth conditions, the effect of the preparations is scored visually by comparison with untreated controls. The agents according to the invention also have good herbicidal activity post-emergence against a broad spectrum of economically important weed grasses and broad-leafed weeds.

Turning to `Cc1cc(N2CCC(Oc3nc(N)nc(C(C)F)n3)C2=O)ccc1F` (centres unmarked) [Example A40], in assay [1], the herbicidal activity pre-emergence result is given as “very good herbicidal activity”. Further, the herbicidal activity post-emergence result in assay [2] was “very good herbicidal activity”.

As to `COc1cccc(N2CCC(Oc3nc(N)nc(C(C)F)n3)C2=O)c1` (centres unmarked) [Example A41], in assay [1], the herbicidal activity pre-emergence result is “very good herbicidal activity”. Also, the herbicidal activity post-emergence entry in assay [2] is “very good herbicidal activity”.

In the case of `CC(F)c1nc(N)nc(OC2CCN(c3cccc(OC(F)(F)F)c3)C2=O)n1` (centres unmarked) [Example A42], the herbicidal activity pre-emergence result in assay [1] is “very good herbicidal activity”. The herbicidal activity post-emergence entry in assay [2] is “very good herbicidal activity”.

For the compound `CC(F)c1nc(N)nc(OC2CCN(c3cccc(Cl)c3)C2=O)n1` (centres unmarked) [Example A43], the herbicidal activity pre-emergence entry in assay [1] is reported as “very good herbicidal activity”. Besides, the herbicidal activity post-emergence result in assay [2] is recorded as “very good herbicidal activity”.

With `CC(F)c1nc(N)nc(OC2CCN(c3cccc(F)c3)C2=O)n1` (centres unmarked) [Example A44], the herbicidal activity pre-emergence entry in assay [1] is listed as “very good herbicidal activity”. Moreover, the herbicidal activity post-emergence entry in assay [2] was “very good herbicidal activity”.

With `CC(C)c1nc(N)nc(OC2CCN(c3ccccc3)C2=O)n1` (centres unmarked) [Example A45], the herbicidal activity pre-emergence result in assay [1] was “very good herbicidal activity”. Also, the herbicidal activity post-emergence result in assay [2] was “very good herbicidal activity”.

As for `CC(C)c1nc(N)nc(OC2CCN(c3cccc(C(F)(F)F)c3)C2=O)n1` (centres unmarked) [Example A46], the herbicidal activity pre-emergence entry in assay [1] is recorded as “very good herbicidal activity”. For the same compound, the herbicidal activity post-emergence result in assay [2] was “very good herbicidal activity”.

In the case of `Cc1cccc(N2CCC(Oc3nc(N)nc(C(C)C)n3)C2=O)c1` (centres unmarked) [Example A47], the herbicidal activity pre-emergence entry in assay [1] is reported as “very good herbicidal activity”. The herbicidal activity post-emergence entry in assay [2] is “very good herbicidal activity”.

Take `Cc1cc(C)cc(N2CCC(Oc3nc(N)nc(C(C)C)n3)C2=O)c1` (centres unmarked) [Example A48]: the herbicidal activity pre-emergence entry in assay [1] is recorded as “very good herbicidal activity”. Moreover, in assay [2], the herbicidal activity post-emergence entry is “very good herbicidal activity”.

On to `Cc1cc(N2CCC(Oc3nc(N)nc(C(C)C)n3)C2=O)ccc1F` (centres unmarked) [Example A49], for which the herbicidal activity pre-emergence result in assay [1] is listed as “very good herbicidal activity”. Also, the herbicidal activity post-emergence result in assay [2] is reported as “very good herbicidal activity”.

With `COc1cccc(N2CCC(Oc3nc(N)nc(C(C)C)n3)C2=O)c1` (centres unmarked) [Example A50], in assay [1], the herbicidal activity pre-emergence entry is “very good herbicidal activity”. The herbicidal activity post-emergence result in assay [2] is listed as “very good herbicidal activity”.

Regarding `CC(C)c1nc(N)nc(OC2CCN(c3cccc(OC(F)(F)F)c3)C2=O)n1` (centres unmarked) [Example A51], in assay [1], the herbicidal activity pre-emergence entry was “very good herbicidal activity”. In addition, in assay [2], the herbicidal activity post-emergence entry is on record as “very good herbicidal activity”.

Consider `CC(C)c1nc(N)nc(OC2CCN(c3cccc(Cl)c3)C2=O)n1` (centres unmarked) [Example A52], for which, in assay [1], the herbicidal activity pre-emergence entry was “very good herbicidal activity”. Also, in assay [2], the herbicidal activity post-emergence entry is reported as “very good herbicidal activity”.

Consider `CC(C)c1nc(N)nc(OC2CCN(c3cccc(F)c3)C2=O)n1` (centres unmarked) [Example A53], for which, in assay [1], the herbicidal activity pre-emergence result was “very good herbicidal activity”. Moreover, the herbicidal activity post-emergence result in assay [2] is on record as “very good herbicidal activity”.

`CC(C)(F)c1nc(N)nc(OC2CCN(c3cccc(C(F)(F)F)c3)C2=O)n1` (centres unmarked) [Example A54]: in assay [1], the herbicidal activity pre-emergence entry is on record as “very good herbicidal activity”. The herbicidal activity post-emergence result in assay [2] was “very good herbicidal activity”.

Regarding `Cc1cccc(N2CCC(Oc3nc(N)nc(C(C)(C)F)n3)C2=O)c1` (centres unmarked) [Example A56], the herbicidal activity pre-emergence result in assay [1] is “very good herbicidal activity”. Moreover, the herbicidal activity post-emergence result in assay [2] is “very good herbicidal activity”.

With `Cc1cc(C)cc(N2CCC(Oc3nc(N)nc(C(C)(C)F)n3)C2=O)c1` (centres unmarked) [Example A57], the herbicidal activity pre-emergence result in assay [1] was “very good herbicidal activity”. Also, the herbicidal activity post-emergence entry in assay [2] is “very good herbicidal activity”.

Take `Cc1cc(N2CCC(Oc3nc(N)nc(C(C)(C)F)n3)C2=O)ccc1F` (centres unmarked) [Example A58]: in assay [1], the herbicidal activity pre-emergence result is listed as “very good herbicidal activity”. Also, the herbicidal activity post-emergence entry in assay [2] is recorded as “very good herbicidal activity”.

For the compound `COc1cccc(N2CCC(Oc3nc(N)nc(C(C)(C)F)n3)C2=O)c1` (centres unmarked) [Example A59], the herbicidal activity pre-emergence result in assay [1] is “very good herbicidal activity”. In addition, the herbicidal activity post-emergence entry in assay [2] was “very good herbicidal activity”.

Turning to `CC(C)(F)c1nc(N)nc(OC2CCN(c3cccc(OC(F)(F)F)c3)C2=O)n1` (centres unmarked) [Example A60], the herbicidal activity pre-emergence entry in assay [1] was “very good herbicidal activity”. Moreover, the herbicidal activity post-emergence entry in assay [2] is recorded as “very good herbicidal activity”.

As for `CC(C)(F)c1nc(N)nc(OC2CCN(c3cccc(Cl)c3)C2=O)n1` (centres unmarked) [Example A61], the herbicidal activity pre-emergence entry in assay [1] is recorded as “very good herbicidal activity”. Further, the herbicidal activity post-emergence entry in assay [2] is reported as “very good herbicidal activity”.

Regarding `CC(C)(F)c1nc(N)nc(OC2CCN(c3cccc(F)c3)C2=O)n1` (centres unmarked) [Example A62], the herbicidal activity pre-emergence entry in assay [1] is listed as “very good herbicidal activity”. Moreover, in assay [2], the herbicidal activity post-emergence entry is listed as “very good herbicidal activity”.

For `CC(F)c1nc(N)nc(N(C)C2CCN(c3cccc(OC(F)(F)F)c3)C2=O)n1` (centres unmarked) [Example A63], the herbicidal activity pre-emergence result in assay [1] was “very good herbicidal activity”. For the same compound, the herbicidal activity post-emergence entry in assay [2] is listed as “very good herbicidal activity”.

For the compound `CC(F)c1nc(N)nc(N(C)C2CCN(c3cccc(C(F)(F)F)c3)C2=O)n1` (centres unmarked) [Example A64], the herbicidal activity pre-emergence result in assay [1] is “very good herbicidal activity”. In addition, in assay [2], the herbicidal activity post-emergence result is “very good herbicidal activity”.

For `Cc1cc(C)cc(N2CCC(N(C)c3nc(N)nc(C(C)F)n3)C2=O)c1` (centres unmarked) [Example A65], the herbicidal activity pre-emergence result in assay [1] is “very good herbicidal activity”. In assay [2], the herbicidal activity post-emergence entry is on record as “very good herbicidal activity”.

As to `CC(F)c1nc(N)nc(N(C)C2CCN(c3cccc(Cl)c3)C2=O)n1` (centres unmarked) [Example A66], the herbicidal activity pre-emergence result in assay [1] is reported as “very good herbicidal activity”. For the same compound, the herbicidal activity post-emergence entry in assay [2] was “very good herbicidal activity”.

Regarding `Cc1cc(N2CCC(N(C)c3nc(N)nc(C(C)F)n3)C2=O)ccc1F` (centres unmarked) [Example A67], in assay [1], the herbicidal activity pre-emergence entry is recorded as “very good herbicidal activity”. Further, the herbicidal activity post-emergence result in assay [2] is “very good herbicidal activity”.

On to `CC(F)c1nc(N)nc(N(C)C2CCN(c3cccc(F)c3)C2=O)n1` (centres unmarked) [Example A69], for which the herbicidal activity pre-emergence entry in assay [1] is on record as “very good herbicidal activity”. Also, the herbicidal activity post-emergence result in assay [2] is “very good herbicidal activity”.

For the compound `CC(C)c1nc(N)nc(N(C)C2CCN(c3cccc(C(F)(F)F)c3)C2=O)n1` (centres unmarked) [Example A70], the herbicidal activity pre-emergence entry in assay [1] is “very good herbicidal activity”. In addition, the herbicidal activity post-emergence result in assay [2] was “very good herbicidal activity”.

For `Cc1cc(C)cc(N2CCC(N(C)c3nc(N)nc(C(C)C)n3)C2=O)c1` (centres unmarked) [Example A71], the herbicidal activity pre-emergence entry in assay [1] is recorded as “very good herbicidal activity”. The herbicidal activity post-emergence entry in assay [2] is reported as “very good herbicidal activity”.

In the case of `CC(C)c1nc(N)nc(N(C)C2CCN(c3cccc(Cl)c3)C2=O)n1` (centres unmarked) [Example A72], the herbicidal activity pre-emergence entry in assay [1] was “very good herbicidal activity”. In addition, the herbicidal activity post-emergence result in assay [2] is listed as “very good herbicidal activity”.

Take `Cc1cc(N2CCC(N(C)c3nc(N)nc(C(C)C)n3)C2=O)ccc1F` (centres unmarked) [Example A73]: the herbicidal activity pre-emergence entry in assay [1] was “very good herbicidal activity”. The herbicidal activity post-emergence result in assay [2] is “very good herbicidal activity”.

Take `Cc1cccc(N2CCC(N(C)c3nc(N)nc(C(C)C)n3)C2=O)c1` (centres unmarked) [Example A74]: the herbicidal activity pre-emergence result in assay [1] was “very good herbicidal activity”. Also, the herbicidal activity post-emergence result in assay [2] is reported as “very good herbicidal activity”.

As for `CC(C)c1nc(N)nc(N(C)C2CCN(c3cccc(OC(F)(F)F)c3)C2=O)n1` (centres unmarked) [Example A75], the herbicidal activity pre-emergence entry in assay [1] is reported as “very good herbicidal activity”. Further, the herbicidal activity post-emergence result in assay [2] was “very good herbicidal activity”.

`CC(C)c1nc(N)nc(N(C)C2CCN(c3cccc(F)c3)C2=O)n1` (centres unmarked) [Example A76]: in assay [1], the herbicidal activity pre-emergence entry was “very good herbicidal activity”. Besides, in assay [2], the herbicidal activity post-emergence result is listed as “very good herbicidal activity”.

As for `COc1cccc(N2CCC(N(C)c3nc(N)nc(C(C)(C)F)n3)C2=O)c1` (centres unmarked) [Example A77], the herbicidal activity pre-emergence entry in assay [1] was “very good herbicidal activity”. The herbicidal activity post-emergence result in assay [2] was “very good herbicidal activity”.

In the case of `Cc1cc(C)cc(N2CCC(N(C)c3nc(N)nc(C(C)(C)F)n3)C2=O)c1` (centres unmarked) [Example A78], in assay [1], the herbicidal activity pre-emergence result is reported as “very good herbicidal activity”. Also, the herbicidal activity post-emergence entry in assay [2] is on record as “very good herbicidal activity”.

The record behind these values is patent US20030171218A1, “Substituted 3-heteroaryl(amino- or oxy)pyrrolidin-2-ones, their preparation and use as herbicides or plant growth regulators” (priority 2001, published 2003).
